{
  "source": "patent US6187559A",
  "about": "“Phospholipase D gene” (Novartis AG, priority 1998, dated 2001)",
  "test_system": "PLD (phospholipase D)",
  "assay": "Assay for PLD activity (release of 3H choline from radiolabeled PC)",
  "assay_type": "biochemical",
  "details": "substrate [methyl-3H] choline dipalmitoyl PC; PLDT buffer (20 mM Tris-HCl pH 7.0, 1.0 mM EDTA, 0.05% Triton X-100), 37° C.",
  "protocol": "The PLD assay measured the release of ^3 H choline from radiolabeled PC (Steed et al. (1996) Biochemistry 35:5229-5237). Product was separated from substrate by partitioning into water from a chloroform:methanol extraction. ^3 H PC substrate was prepared by drying stock (in methanol) with argon and re-dissolving into minimal volumes of methanol (2-10 μl). After dilution with a buffer of 20 mM Tris-HCl, pH 7.0, 1.0 mM EDTA and 0.05% Triton X-100 (PLDT buffer) to a 5× concentration, the substrate was sonicated for 30 sec and used immediately. The assay was performed with 1.0 μM [methyl-^3 H] choline L-a-PC dipalmitoyl phosphatidylcholine (0.1 μCi/assay) and enzyme with PLDT buffer added to a final volume of 50 μl using polypropylene tubes. Since the estimated Km is greater than 1 μM, PC is limiting in this assay. Unfortunately, the solubility constraints of the lipid substrate preclude the use of higher PC concentrations. […] The radioactivity in the aqueous phase (200 μl) was counted in either a Beckman LS 3801 (Beckman Instruments Columbia Md.) or Wallac 1450 Microbeta Plus (Wallac Inc., Gaithersburg Md.) liquid scintillation counter after the addition of scintillant. […] The material was assayed using transphosphatidylation to butanol and ethanol to verify that PLD activity is being measured. […]",
  "data": [
    {"smiles": "CCCCCCCCCCCCCCCC(=O)OC[C@H](COP(=O)([O-])OCC[N+](C)(C)C)OC(=O)CCCCCCCCCCCCCCC", "note": "[PC, dipalmitoyl phosphatidylcholine]", "values": [
      {"measurement": "estimated Km", "value": "greater than 1 μM"}
    ]}
  ]
}
